Data on 6 compounds can be found in ChEMBL document CHEMBL3864171, “Pyridyl Isonicotinamide Inhibitors of RAF Kinase” (ACS Med Chem Lett, 2016).

For the assay, the target named is RAF proto-oncogene serine/threonine-protein kinase (Homo sapiens, UniProt P04049). Put plainly: Inhibition of 1 to 324 residues truncated c-Raf (unknown origin) expressed in baculovirus infected Sf9 insect cells using full length biotinylated MEK1 ATP binding site K97R mutant as substrate preincubated for 60 mins followed by ATP addition measured after 1 hr by alpha screen assay. For orientation: In Alpha technology, singlet oxygen from a donor bead excites a nearby acceptor bead.
Chain of RAF proto-oncogene serine/threonine-protein kinase (P04049 whole entry, the tested form may be a part): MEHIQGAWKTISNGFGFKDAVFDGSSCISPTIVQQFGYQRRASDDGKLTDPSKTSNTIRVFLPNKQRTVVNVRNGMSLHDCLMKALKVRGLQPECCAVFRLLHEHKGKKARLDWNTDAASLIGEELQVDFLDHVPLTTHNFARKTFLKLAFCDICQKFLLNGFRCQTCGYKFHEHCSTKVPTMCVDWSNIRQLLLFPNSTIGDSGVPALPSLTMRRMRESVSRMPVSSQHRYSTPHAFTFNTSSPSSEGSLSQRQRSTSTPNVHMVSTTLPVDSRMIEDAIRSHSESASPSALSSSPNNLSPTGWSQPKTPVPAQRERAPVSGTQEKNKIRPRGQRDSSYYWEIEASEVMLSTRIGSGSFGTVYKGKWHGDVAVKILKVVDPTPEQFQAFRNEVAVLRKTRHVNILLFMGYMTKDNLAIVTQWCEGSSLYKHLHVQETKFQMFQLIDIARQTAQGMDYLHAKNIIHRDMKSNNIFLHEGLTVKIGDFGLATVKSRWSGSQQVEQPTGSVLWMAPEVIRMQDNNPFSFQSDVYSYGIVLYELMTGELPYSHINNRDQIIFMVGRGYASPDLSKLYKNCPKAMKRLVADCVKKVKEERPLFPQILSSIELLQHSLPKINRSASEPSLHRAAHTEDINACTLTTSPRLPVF

For `Cc1ccc(NC(=O)c2ccnc(C(F)(F)F)c2)cc1-c1cnc(OCCOP(=O)(O)O)c(N2CCOCC2)c1`, the IC50 (in general, the point on the concentration scale where inhibition reaches its midpoint) was determined as 0.03 nM. In turn, `Cc1ccc(NC(=O)c2cc(C(F)(F)F)ccn2)cc1-c1cc(OCC(O)CP(=O)(O)O)nc(N2CCOCC2)c1` (stereo unspecified) showed an IC50 of 0.024 nM.

Compound `Cc1ccc(NC(=O)c2ccnc(C(F)(F)F)c2)cc1-c1cc(OCCOP(=O)(O)O)nc(N2CCOCC2)c1` displayed an IC50 of 0.1 nM. This IC50 is about 4.2-fold higher than that of the compound before. As to `Cc1ccc(NC(=O)c2ccnc(C(C)(F)F)c2)cc1-c1cc(OCCOP(=O)(O)O)nc(N2CCOC[C@H]2C)c1`, the IC50 was 0.1 nM. `Cc1ccc(NC(=O)c2cccc(C(F)(F)F)c2)cc1-c1cc(OCCOP(=O)(O)O)nc(N2CCOC[C@H]2C)c1`: the IC50 amounted to 6 nM. With `Cc1ccc(NC(=O)c2ccnc(C(F)(F)F)c2)cc1-c1cc(OCCOP(=O)(O)O)nc(N2CCOC[C@H]2C)c1`, the IC50 was determined as 2 nM.
